The values below come from patent US20160030440A1, “ANTI-TUMORAL COMPOSITION COMPRISING A PI3KBETA-SELECTIVE INHIBITOR AND A PI3KALPHA-SELECTIVE INHIBITOR” (SANOFI, priority 2013, published 2016).

Assay [1] has as its target PI3Kgamma (Homo sapiens, UniProt P48736). The conditions noted are these: PI3Kβ versus PI3Kgamma; cited from earlier work.
Assay [2] addresses PI3Kalpha (Homo sapiens, UniProt P42336). The conditions noted are these: PI3Kβ versus PI3Kalpha; cited from earlier work.
Assay [3] relates to 294 other kinases. The conditions noted are these: at 10 μM; cited from earlier work.
The target of assay [4] is PI3Kdelta (Homo sapiens, UniProt O00329). The conditions noted are these: PI3Kβ versus PI3Kdelta; cited from earlier work.
Sequence of PI3Kdelta (O00329 whole entry, species assumed): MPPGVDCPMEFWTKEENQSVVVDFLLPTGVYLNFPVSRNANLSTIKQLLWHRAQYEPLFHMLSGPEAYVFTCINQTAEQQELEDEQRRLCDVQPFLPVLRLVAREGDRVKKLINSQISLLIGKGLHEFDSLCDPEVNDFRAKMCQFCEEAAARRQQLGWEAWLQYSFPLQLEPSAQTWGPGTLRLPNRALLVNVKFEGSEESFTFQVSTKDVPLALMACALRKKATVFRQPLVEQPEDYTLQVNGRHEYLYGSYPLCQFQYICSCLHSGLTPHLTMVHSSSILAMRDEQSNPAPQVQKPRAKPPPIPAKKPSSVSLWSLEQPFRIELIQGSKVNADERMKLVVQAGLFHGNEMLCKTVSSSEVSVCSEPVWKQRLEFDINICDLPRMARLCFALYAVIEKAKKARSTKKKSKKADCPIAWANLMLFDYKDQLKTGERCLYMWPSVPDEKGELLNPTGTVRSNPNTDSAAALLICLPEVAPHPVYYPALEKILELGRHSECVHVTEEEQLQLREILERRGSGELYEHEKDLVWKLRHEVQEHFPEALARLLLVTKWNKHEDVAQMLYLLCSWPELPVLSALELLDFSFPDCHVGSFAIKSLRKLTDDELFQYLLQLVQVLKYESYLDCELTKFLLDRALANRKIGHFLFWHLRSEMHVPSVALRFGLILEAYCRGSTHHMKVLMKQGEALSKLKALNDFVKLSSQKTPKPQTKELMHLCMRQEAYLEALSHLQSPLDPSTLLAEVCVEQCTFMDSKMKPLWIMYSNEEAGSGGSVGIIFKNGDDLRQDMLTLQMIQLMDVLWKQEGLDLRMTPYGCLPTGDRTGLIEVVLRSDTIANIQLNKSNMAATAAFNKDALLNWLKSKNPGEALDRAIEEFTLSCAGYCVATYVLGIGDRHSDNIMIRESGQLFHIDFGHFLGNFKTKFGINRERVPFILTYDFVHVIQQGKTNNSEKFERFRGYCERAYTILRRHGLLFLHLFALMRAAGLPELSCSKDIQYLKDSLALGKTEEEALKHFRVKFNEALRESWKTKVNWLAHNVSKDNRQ
Sequence of PI3Kdelta (P27986 whole entry partner, species assumed): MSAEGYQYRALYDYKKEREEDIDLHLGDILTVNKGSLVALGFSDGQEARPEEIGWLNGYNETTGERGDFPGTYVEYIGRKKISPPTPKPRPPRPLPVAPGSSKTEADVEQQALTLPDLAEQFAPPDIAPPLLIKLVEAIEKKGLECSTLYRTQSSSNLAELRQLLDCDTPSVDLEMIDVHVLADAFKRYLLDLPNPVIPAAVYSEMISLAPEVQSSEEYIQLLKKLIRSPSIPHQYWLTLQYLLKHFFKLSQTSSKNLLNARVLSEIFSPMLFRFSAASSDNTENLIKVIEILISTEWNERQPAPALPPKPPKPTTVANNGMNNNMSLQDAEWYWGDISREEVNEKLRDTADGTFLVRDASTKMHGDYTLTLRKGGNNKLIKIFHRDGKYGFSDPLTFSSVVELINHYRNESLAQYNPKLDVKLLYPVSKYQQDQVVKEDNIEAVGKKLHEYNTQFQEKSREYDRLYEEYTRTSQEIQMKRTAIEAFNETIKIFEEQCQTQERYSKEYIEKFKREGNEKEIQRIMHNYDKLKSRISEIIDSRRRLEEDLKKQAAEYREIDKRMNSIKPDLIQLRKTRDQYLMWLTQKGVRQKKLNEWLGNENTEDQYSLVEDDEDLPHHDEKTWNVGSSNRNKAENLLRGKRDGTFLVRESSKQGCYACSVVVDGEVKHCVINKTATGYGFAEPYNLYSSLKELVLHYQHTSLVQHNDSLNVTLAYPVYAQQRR
Assay [5] has as its target T1, mTOR (Homo sapiens, UniProt P42345). Particulars: PI3Kβ versus mTOR; cited from earlier work.
Assay [6] relates to PC-3 cells. The assay can be described thus: In vitro anti-proliferative activity, CelltiterGlo, ray design. The assay is classed as cell-based, human. The conditions noted are these: PC-3, single agent, 96 hours; brackets: interval. As to the method: The human prostate cancer PC-3 cell line was purchased at ATCC (Ref number CRL-1435). The PC-3 cells were cultured in DMEM High Glucose medium supplemented with 10% FBS and 2 mM L-Glutamine.
They were diluted serially, in DMSO following a 3 or 3.3-fold dilution step: then each solution was diluted 50-fold in culture medium containing 10% serum before being added onto cells with a 20-fold dilution factor. The DMSO concentration was 0.1% in controls and in all treated wells.
(§1) A ray design method was used allowing the characterization of the interaction of the two compounds for several fixed proportion in the mixture. The ray design includes one ray for each single agent and 19 combination rays.
PC-3 cells were plated at 1,000 cells/well in 384-well plates in appropriate culture medium and incubated for 6 hours at 37° C., 5% CO2. […] Cell growth was evaluated by measuring intracellular ATP using CelltiterGlo® reagent (Promega) according to the manufacturer's protocol. Briefly, CellTiterGlo® was added to each plate, incubated for 1 hour then luminescent signal was read on the MicroBeta Luminescent plate reader. Three experiments have been performed on the cell line. […]
Growth inhibition percentage (GI %) was calculated according to the following equation: […]
On the technique in general: ATP-based viability assays read luminescence as a measure of living cells.

Assay [7] deals with HEC-116 cells. The description is as above. The assay is classed as cell-based, human. The conditions noted are these: HEC-116, single agent, 96 hours; brackets: interval. As to the method:
The human endometrium adenocarcinoma cell line HEC-116 cell line was purchased at JCRB (Ref number JCRB1124 Batch 11072005). The HEC-116 cells were cultured in MEMa medium supplemented with 15% FBS and 2 mM L-Glutamine.
Compounds (I) and (II) dilutions were prepared according to the material and methods of example 1. The final concentrations tested were defined by ray design method described below. The DMSO concentration was 0.1% in controls and in all treated wells.
as §1
HEC-116 cells were plated at 3,000 cells/well in 384-well plates in appropriate culture medium and incubated for 6 hours at 37° C., 5% CO2. […] Cell growth was evaluated by measuring intracellular ATP using CelltiterGlo® reagent (Promega) according to the manufacturer's protocol. Briefly, CellTiterGlo® was added to each plate, incubated for 1 hour then luminescent signal was read on the MicroBeta Luminescent plate reader.
Three experiments have been performed on this cell line. For each experiment, two 384-well plates were used allowing working with two replicates for combination rays and with four replicates for single agent rays. […]

Assay [8] deals with T1, mTOR. The assay can be described thus: mTOR inhibition. Particulars: up to 10 μM. The assay is classed as biochemical.

Sequence of PI3Kalpha (P42336 whole entry, species assumed): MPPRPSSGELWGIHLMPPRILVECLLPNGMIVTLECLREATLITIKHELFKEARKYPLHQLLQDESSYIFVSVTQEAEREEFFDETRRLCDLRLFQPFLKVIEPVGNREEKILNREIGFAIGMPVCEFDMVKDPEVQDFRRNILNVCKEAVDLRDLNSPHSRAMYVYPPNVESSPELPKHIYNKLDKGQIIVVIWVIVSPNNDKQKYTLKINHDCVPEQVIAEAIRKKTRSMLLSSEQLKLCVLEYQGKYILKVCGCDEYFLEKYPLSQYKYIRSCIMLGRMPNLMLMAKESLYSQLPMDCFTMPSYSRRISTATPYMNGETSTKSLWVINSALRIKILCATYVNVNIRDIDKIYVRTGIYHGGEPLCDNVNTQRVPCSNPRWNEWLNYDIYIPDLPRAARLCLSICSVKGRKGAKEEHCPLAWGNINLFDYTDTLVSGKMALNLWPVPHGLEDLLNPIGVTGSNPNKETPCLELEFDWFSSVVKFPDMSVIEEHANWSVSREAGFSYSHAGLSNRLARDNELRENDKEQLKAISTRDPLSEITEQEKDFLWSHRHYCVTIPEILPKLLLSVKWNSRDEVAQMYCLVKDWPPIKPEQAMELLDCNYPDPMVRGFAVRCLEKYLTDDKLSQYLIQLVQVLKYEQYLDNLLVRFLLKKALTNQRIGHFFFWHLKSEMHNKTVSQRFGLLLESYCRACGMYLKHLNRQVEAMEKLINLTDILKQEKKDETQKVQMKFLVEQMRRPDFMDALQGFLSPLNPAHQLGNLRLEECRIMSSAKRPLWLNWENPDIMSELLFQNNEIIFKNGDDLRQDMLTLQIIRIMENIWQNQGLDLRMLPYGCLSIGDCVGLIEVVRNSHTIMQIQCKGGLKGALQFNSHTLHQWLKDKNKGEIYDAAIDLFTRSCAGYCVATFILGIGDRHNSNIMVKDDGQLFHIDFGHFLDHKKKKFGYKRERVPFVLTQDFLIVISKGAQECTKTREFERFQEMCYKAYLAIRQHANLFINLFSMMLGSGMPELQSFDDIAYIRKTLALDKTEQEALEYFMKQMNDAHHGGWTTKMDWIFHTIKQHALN
Sequence of PI3Kalpha (P27986 whole entry partner, species assumed): as the sequence (P27986 whole entry partner, species assumed) above
Sequence of PI3Kgamma (P48736 whole entry, species assumed): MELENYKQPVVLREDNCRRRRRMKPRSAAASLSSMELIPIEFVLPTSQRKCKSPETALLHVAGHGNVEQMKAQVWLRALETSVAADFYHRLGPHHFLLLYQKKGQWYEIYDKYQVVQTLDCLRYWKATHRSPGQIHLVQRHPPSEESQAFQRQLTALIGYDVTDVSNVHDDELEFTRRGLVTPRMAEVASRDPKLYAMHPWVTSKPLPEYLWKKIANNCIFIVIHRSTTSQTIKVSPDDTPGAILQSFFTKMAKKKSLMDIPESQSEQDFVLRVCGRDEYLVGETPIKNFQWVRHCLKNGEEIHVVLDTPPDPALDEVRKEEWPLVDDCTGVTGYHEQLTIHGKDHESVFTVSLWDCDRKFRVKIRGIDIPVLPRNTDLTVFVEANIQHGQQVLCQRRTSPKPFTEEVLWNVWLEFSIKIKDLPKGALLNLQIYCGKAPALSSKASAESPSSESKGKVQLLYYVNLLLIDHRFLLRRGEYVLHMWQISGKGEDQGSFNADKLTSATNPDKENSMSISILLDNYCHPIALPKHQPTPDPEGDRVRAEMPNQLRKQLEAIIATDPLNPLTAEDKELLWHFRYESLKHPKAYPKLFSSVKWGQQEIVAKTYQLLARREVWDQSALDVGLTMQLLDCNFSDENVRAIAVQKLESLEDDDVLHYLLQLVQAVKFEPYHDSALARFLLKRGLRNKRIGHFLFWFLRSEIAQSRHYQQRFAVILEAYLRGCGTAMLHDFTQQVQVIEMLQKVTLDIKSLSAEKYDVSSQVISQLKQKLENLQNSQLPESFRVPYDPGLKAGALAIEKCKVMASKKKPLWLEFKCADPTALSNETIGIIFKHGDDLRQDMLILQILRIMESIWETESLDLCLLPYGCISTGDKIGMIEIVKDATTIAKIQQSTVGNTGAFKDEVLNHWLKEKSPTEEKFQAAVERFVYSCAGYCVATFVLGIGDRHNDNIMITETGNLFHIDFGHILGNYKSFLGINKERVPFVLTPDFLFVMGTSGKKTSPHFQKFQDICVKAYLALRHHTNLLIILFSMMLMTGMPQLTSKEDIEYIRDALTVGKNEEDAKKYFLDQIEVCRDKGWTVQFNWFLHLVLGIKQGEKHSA

For `Cc1c(Cn2c(C)nc3c(C(=O)O)cc(N4CCOCC4)cc32)cccc1C(F)(F)F` [compound (III)], the “selectivity over PI3Kgamma” value in assay [1] is given as above 1000 fold. Moreover, the “selectivity over PI3Kalpha” value in assay [2] is recorded as above 1000 fold. Moreover, the “inhibition of 294 other kinases” value in assay [3] was “less than 30%”. In addition, the “selectivity over PI3Kdelta” value in assay [4] is 12 fold. Further, the “selectivity over mTOR” value in assay [5] is above 1000 fold.
Consider `Cc1nc(NC(=O)N2CCC[C@H]2C(N)=O)sc1-c1ccnc(C(C)(C)C(F)(F)F)c1` [compound (II), (2S)-N1-[4-Methyl-5-[2-(2,2,2-trifluoro-1,1-dimethylethyl)-4-pyridinyl]-2-thiazolyl]-1,2-pyrrolidinedicarboxamide], for which the “Absolute IC40 (growth inhibition 40%)” value in assay [6] is on record as 14,700 nM; in assay [7] it was 8,630 nM.
As for `C[C@H]1Cc2ccccc2N1C(=O)Cc1nc(N2CCOCC2)cc(=O)[nH]1` [compound (I), 2-{2-[(2S)-2-methyl-2,3-dihydro-1H-indol-1-yl]-2-oxoethyl}-6-(morpholin-4-yl)pyrimidin-4(3H)-one], the “Absolute IC40 (growth inhibition 40%)” value is on record as 20,200 nM in assay [6] and 12,400 nM in assay [7]. Besides, the “inhibition of mTOR” value in assay [8] is “not inhibit”.
